Source: patent US20220289728A1, “MODULATORS OF TREX1” (Constellation Pharmaceuticals, Inc., priority 2019, published 2022)

Columns and labels:
[1] = biological target: T1, human TREX2 (residues M44-A279) (Homo sapiens, UniProt Q9BQ50); assay: TREX2 Biochemical Assay (fluorescence, dsDNA substrate degradation); conditions: 2.5 nM TREX2, 60 nM dsDNA substrate, 25 minutes at room temperature
T1 construct: human TREX2 (residues M44-A279, expressed in E. coli); His-TEV (His tag with TEV site) (N); made in house; host or cells: E. coli
T1 sequence (Q9BQ50 44-279 isoform Q9BQ50-1): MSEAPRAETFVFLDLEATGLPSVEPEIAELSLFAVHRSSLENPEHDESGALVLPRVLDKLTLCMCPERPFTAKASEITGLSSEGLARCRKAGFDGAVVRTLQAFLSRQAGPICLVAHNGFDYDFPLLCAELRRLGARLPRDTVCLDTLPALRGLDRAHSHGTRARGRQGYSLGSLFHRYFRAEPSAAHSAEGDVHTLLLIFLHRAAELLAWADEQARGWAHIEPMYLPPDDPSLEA
Protocol: Degradation of the dsDNA liberates free fluorophore to produce a fluorescent signal. Specifically, 7.5 μL of N-terminally His-Tev tagged human TREX2 (residues M44-A279, expressed in E. coli and purified in house) in reaction buffer (50 mM Tris (pH 7.4), 150 mM NaCl, 2 mM DTT, 0.1 mg/mL BSA, 0.01% (v/v) Tween-20 and 100 mM MgCl2) was added to a 384-well Black ProxiPlate Plus (Perkin Elmer) which already contained compound (150 nL) at varying concentrations as a 10 point dose-response in DMSO. To this was added 7.5 μL of dsDNA substrate (Strand A: 5′ TEX615/GCT AGG CAG 3′; Strand B: 5′ CTG CCT AGC/IAbRQSp (IDT)) in reaction buffer. Final concentrations were 2.5 nM TREX2, 60 nM dsDNA substrate in reaction buffer with 1.0% DMSO (v/v). After 25 minutes at room temperature, reactions were quenched by the addition of 5 μL of stop buffer (same as reaction buffer plus 200 mM EDTA). Final concentrations in the quenched reaction mixture were […] TREX2, 45 nM DNA and 50 mM EDTA in a volume of 20 μL. After a 5-minute incubation at room temperature, plates were read in a laser sourced Envision (Perkin-Elmer), measuring fluorescence at 615 nm following excitation w/570 nm light. IC50 values were calculated by comparing the measured fluorescence at 615 nm ratio relative to control wells pre-quenched w/stop buffer (100% inhibition) and no inhibitor (0% inhibition) controls as using non-linear least square four parameter fits and either Genedata or GraphPad Prism (GraphPad Software, Inc.).

full length human TREX1 = biological target: T2, full length human TREX1 (Homo sapiens, UniProt Q9NSU2); assay: TREX1 Biochemical Assay (fluorescence, dsDNA substrate degradation); conditions: 150 pM TREX1, 60 nM dsDNA substrate, 25 minutes at room temperature
T2 construct: N-terminally His-Tev tagged full length human TREX1; His-TEV (His tag with TEV site) (N); made in house; host or cells: E. coli
T2 sequence (Q9NSU2 1-314): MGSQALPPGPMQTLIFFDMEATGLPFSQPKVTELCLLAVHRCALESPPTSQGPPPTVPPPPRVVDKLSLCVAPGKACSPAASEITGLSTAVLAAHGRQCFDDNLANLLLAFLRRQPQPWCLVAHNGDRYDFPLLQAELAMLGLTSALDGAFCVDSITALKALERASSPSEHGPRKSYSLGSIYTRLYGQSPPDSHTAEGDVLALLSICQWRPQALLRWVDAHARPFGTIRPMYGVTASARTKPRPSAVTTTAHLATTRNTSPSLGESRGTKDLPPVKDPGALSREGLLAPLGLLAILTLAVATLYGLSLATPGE
Protocol: Degradation of the dsDNA liberates free fluorophore to produce a fluorescent signal. Specifically, 7.5 μL of N-terminally His-Tev tagged full length human TREX1 (expressed in E. coli and purified in house) in reaction buffer (50 mM Tris (pH 7.4), 150 mM NaCl, 2 mM DTT, 0.1 mg/mL BSA, 0.01% (v/v) Tween-20 and 100 mM MgCl2) was added to a 384-well Black ProxiPlate Plus (Perkin Elmer) which already contained compound (150 nL) at varying concentrations as a 10 point dose-response in DMSO. To this was added 7.5 μL of dsDNA substrate (Strand A: 5′ TEX615/GCT AGG CAG 3′; Strand B: 5′ CTG CCT AGC/IAbRQSp (Integrated DNA Technologies)) in reaction buffer. Final concentrations were 150 pM TREX1, 60 nM dsDNA substrate in reaction buffer with 1.0% DMSO (v/v). After 25 minutes at room temperature, reactions were quenched by the addition of 5 μL of stop buffer (same as reaction buffer plus 200 mM EDTA). Final concentrations in the quenched reaction were 112.5 pM TREX1, 45 nM DNA and 50 mM EDTA in a volume of 20 μL. After a 5-minute incubation at room temperature, plates were read in a laser sourced Envision (Perkin-Elmer), measuring fluorescence at 615 nm following excitation w/570 nm light. IC50 values were calculated by comparing the measured fluorescence at 615 nm ratio relative to control wells pre-quenched w/stop buffer (100% inhibition) and no inhibitor (0% inhibition) controls as using non-linear least square four parameter fits and either Genedata or GraphPad Prism (GraphPad Software, Inc.).

HCT116 dual cells = assay: HCT116 Cell Assay (Lucia luciferase reporter of Type I interferon induction); assay type: cell-based, human; conditions: pBR322/BstNI DNA transfection, Lucia luciferase at 48 h, relative to 10 uM compound 39
Excerpt: HCT116 dual cells (Invivogen, San Diego, Calif., USA) are derived from the human HCT116 colorectal carcinoma cell line. Cells have been selected for the stable integration of SEAP and Luciferase reporter genes, which expression is under the control of 5 tandem response elements for NF-KB/AP1 and STAT1/STAT2, respectively. The cell line was used to monitor Type I interferon induction and subsequent signaling by measuring the activity of the Lucia luciferase secreted in the culture medium.
HCT116 cells were plated in 96-well plate(s) at 40,000 cells/well in 100 uL DMEM supplemented with 10% FBS and 25 mM Hepes (pH 7.2-7.5). After overnight settling, cells were treated with TREX1i for 4 h (maximum DMSO fraction was 0.1%) before 1.25 ug/mL pBR322/BstNI restriction digest (New England Biolabs, Ipswich, Mass., USA) was transfected with Lipofectamine LTX (ThermoFisher, Grand Island, N.Y., USA), according to product manual recommendations. Briefly, Lipofectamine LTX (0.4 uL/well) was diluted in OptiMEM (5 uL/well). pBR322/BstNI (100 ng/well) was diluted in OptiMEM (5 uL/well) before Plus reagent (0.1 uL/100 ng DNA) was added. After 5 min incubation at room temperature, the DNA mixture was mixed dropwise with the diluted Lipofectamine LTX. After an additional 10 min incubation, the transfection mix (10 uL/well) was added to the cells. Cells were maintained at 37° C. for 48 h before monitoring the Lucia Luciferase activity from the cell culture medium. EC50 values were calculated by comparing the measured luminescence relative to 10 uM compound 39 (100% inhibition) and no inhibitor (0% inhibition) controls using non-linear least-squares four parameter fits in either Genedata Screener or GraphPad Prism (GraphPad Software, Inc.).

[2] = Homo sapiens, HCT-116, 4 h pre-treatment

IC50 [1]	IC50 (full length human TREX1)	EC50 (HCT116 dual cells; [2])	EC50 (HCT116 dual cells; 4 h pre-treatment)	Structure (SMILES)
< 1000 nM	< 100 nM	< 1 µM		CN(c1nc(C(=O)Nc2cnoc2)c(O)c(=O)n1C)C(c1ccccc1)c1ccccc1C#N (single isomer, unassigned) [Example 85]
10000 to 100000 nM	< 100 nM	10 to 100 µM		CN(Cc1ccc(Cl)cc1)c1nc(C(=O)Nc2cnoc2)c(O)c(=O)n1C [Example 9]
1000 to 10000 nM	< 100 nM	1 to 10 µM		CN(Cc1cccc2c1cnn2C)c1nc(C(=O)Nc2cnoc2)c(O)c(=O)n1C [Example 31]
< 1000 nM	< 100 nM		< 1 µM	CN(c1nc(C(=O)Nc2cnoc2)c(O)c(=O)n1C)C(c1ccccc1)c1ccccc1C(F)(F)F (single isomer, unassigned) [Example 84]
< 1000 nM	< 100 nM	< 1 µM		CN(c1nc(C(=O)Nc2cnoc2)c(O)c(=O)n1C)C(c1ccccc1)c1ccccc1C(F)(F)F (single isomer, unassigned) [Example 83]
1000 to 10000 nM	< 100 nM	10 to 100 µM		CN(Cc1ccc(-c2cnn(C)c2)cc1)c1nc(C(=O)Nc2cnoc2)c(O)c(=O)n1C [Example 25]
< 1000 nM	< 100 nM	1 to 10 µM		CC(c1c(Cl)cccc1Cl)N(C)c1nc(C(=O)Nc2cnoc2)c(O)c(=O)n1C (single isomer, unassigned) [Example 70]
< 1000 nM	< 100 nM		< 1 µM	CN(C)C(=O)c1ccc(C(c2ccccc2)N(C)c2nc(C(=O)Nc3cnoc3)c(O)c(=O)n2C)c(Cl)c1 (single isomer, unassigned) [Example 94]
< 1000 nM	< 100 nM		< 1 µM	CC(c1c(Cl)cccc1Cl)N(C)c1nc(C(=O)Nc2cnoc2)c(O)c(=O)n1C (single isomer, unassigned) [Example 71]
1000 to 10000 nM	< 100 nM	10 to 100 µM		Cc1nn(C)cc1-c1cncc(CN(C)c2nc(C(=O)Nc3cnoc3)c(O)c(=O)n2C)n1 [Example 79]
1000 to 10000 nM	< 100 nM	1 to 10 µM		CN(Cc1cc(Cl)ccc1Cl)c1nc(C(=O)Nc2cnoc2)c(O)c(=O)n1C [Example 5]
< 1000 nM	< 100 nM		< 1 µM	CN(c1nc(C(=O)Nc2cnoc2)c(O)c(=O)n1C)C(c1ccccn1)c1ccccc1Cl (single isomer, unassigned) [Example 57]
< 1000 nM	< 100 nM	< 1 µM		CN(c1nc(C(=O)Nc2cnoc2)c(O)c(=O)n1C)C(c1ccccn1)c1ccccc1Cl (single isomer, unassigned) [Example 56]
< 1000 nM	< 100 nM	1 to 10 µM		C[C@H](c1ccccc1)N(C)c1nc(C(=O)Nc2cnoc2)c(O)c(=O)n1C [Example 27]
1000 to 10000 nM	< 100 nM	1 to 10 µM		CN(c1nc(C(=O)Nc2cnoc2)c(O)c(=O)n1C)C(c1ccccc1)C1CCOCC1 (single isomer, unassigned) [Example 45]
< 1000 nM	< 100 nM	< 1 µM		CN(c1nc(C(=O)Nc2cnoc2)c(O)c(=O)n1C)C(c1ccccc1)c1ccccc1Cl (single isomer, unassigned) [Example 39]
< 1000 nM	< 100 nM	10 to 100 µM		Cn1c(N(CCOc2ccccc2)Cc2ccccc2)nc(C(=O)Nc2cnoc2)c(O)c1=O [Example 16]
< 1000 nM	< 100 nM	< 1 µM		Cc1ncc(C(c2ccccc2Cl)N(C)c2nc(C(=O)Nc3cnoc3)c(O)c(=O)n2C)cn1 (single isomer, unassigned) [Example 81]
1000 to 10000 nM	< 100 nM	1 to 10 µM		CN(Cc1ccc(Cl)c(Cl)c1)c1nc(C(=O)Nc2cnoc2)c(O)c(=O)n1C [Example 7]
1000 to 10000 nM	< 100 nM	1 to 10 µM		CN(Cc1ccccc1)c1nc(C(=O)Nc2cnoc2)c(O)c(=O)n1C [Example 2]
< 1000 nM	< 100 nM		< 1 µM	CN(c1nc(C(=O)Nc2cnoc2)c(O)c(=O)n1C)C(c1ccccc1)c1cc(F)ccc1Cl (single isomer, unassigned) [Example 88]
< 1000 nM	< 100 nM		1 to 10 µM	Cc1cccc(Cl)c1C(c1ccccn1)N(C)c1nc(C(=O)Nc2cnoc2)c(O)c(=O)n1C (single isomer, unassigned) [Example 63]
< 1000 nM	< 100 nM	< 1 µM		CN(c1nc(C(=O)Nc2cnoc2)c(O)c(=O)n1C)C(c1ccccc1Cl)C1CC1 (single isomer, unassigned) [Example 68]
1000 to 10000 nM	< 100 nM	10 to 100 µM		CCN(Cc1ccccc1)c1nc(C(=O)Nc2cnoc2)c(O)c(=O)n1C [Example 13, 2-(benzyl(ethyl)amino)-5-hydroxy-N-(isoxazol-4-yl)-1-methyl-6-oxo-1,6-dihydropyrimidine-4-carboxamide]
1000 to 10000 nM	< 100 nM	10 to 100 µM		CN(Cc1ccccc1-c1ccccc1)c1nc(C(=O)Nc2cnoc2)c(O)c(=O)n1C [Example 18]
